Results reported in ChEMBL document CHEMBL1201862, “PubChem BioAssay data set” (2004).
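Each compound was tested at five concentrations against cells in 96-well plates for 48 hours. GI50 marks 50% less growth.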 Activity calls are given as the source filed them. Cut-off read from the data, not from the text of the source: active = GI50 up to about 1.1 µM and inactive = higher.

What was measured:
Assay in all cases: inhibition of tumour cell growth, NCI panel, 48 h
[1] = tested on: M14
[2] = tested on: KM-20L2
[3] = tested on: SNB-19
[4] = tested on: IGROV-1
[5] = tested on: COLO 205
[6] = tested on: KM12
[7] = tested on: U-251
[8] = tested on: HOP-92
[9] = tested on: CAKI-1
[10] = tested on: SNB-75
[11] = tested on: SK-MEL-5
[12] = tested on: SF-295
[13] = tested on: OVCAR-8
[14] = tested on: SR
[15] = tested on: CCRF-CEM
[16] = tested on: SK-MEL-2
[17] = tested on: A498

Measured: GI50

CC1(C)C(=O)C(C)(C)C1=NNC(N)=S
inactive: [1] > 100 µM | [2] > 100 µM | [3] > 100 µM | [4] > 100 µM | [5] > 100 µM | [6] > 100 µM | [7] > 100 µM | [8] > 100 µM | [9] > 100 µM | [10] > 100 µM | [11] > 100 µM | [12] > 100 µM | [13] > 100 µM | [14] > 100 µM

CCOC(=O)C1C(NC(N)=O)N(Cc2ccccc2)C(=O)N1Cc1ccccc1 (stereo unspecified)
inactive: [1] > 100 µM | [2] 41.3 µM | [3] > 100 µM | [4] > 100 µM | [5] > 100 µM | [15] > 100 µM | [6] > 100 µM | [7] 17.3 µM | [8] > 100 µM | [16] > 100 µM | [9] > 100 µM | [10] > 100 µM | [11] > 100 µM | [12] > 100 µM | [13] > 100 µM | [14] > 100 µM

COCOCC/C=C/C=O
inactive: [1] > 100 µM | [2] > 100 µM | [3] > 100 µM | [4] > 100 µM | [5] > 100 µM | [15] > 100 µM | [6] > 100 µM | [7] > 100 µM | [8] > 100 µM | [16] > 100 µM | [10] > 100 µM | [11] > 100 µM | [12] > 100 µM | [13] > 100 µM | [14] > 100 µM | [17] > 100 µM

O=c1c2ccccc2nc2n1-c1ccccc1SC2
inactive: [1] 50.5 µM | [2] > 100 µM | [3] > 100 µM | [4] 66.5 µM | [5] 92.9 µM | [15] 38.8 µM | [6] 29.5 µM | [7] 84.7 µM | [8] 55.1 µM | [16] > 100 µM | [9] > 100 µM | [10] 17.7 µM | [11] 30.1 µM | [12] > 100 µM | [13] 38 µM | [17] 47.9 µM

CN(C)CCn1cnc2sc3ccccc3c21
inactive: [1] > 100 µM | [2] > 100 µM | [3] > 100 µM | [4] > 100 µM | [5] > 100 µM | [15] > 100 µM | [6] > 100 µM | [7] > 100 µM | [16] > 100 µM | [9] 95.3 µM | [10] 22.2 µM | [11] > 100 µM | [12] > 100 µM | [13] > 100 µM | [17] > 100 µM

CCOC(=O)C(=O)Nc1c(C)cccc1CC
inactive: [1] > 100 µM | [2] > 100 µM | [3] > 100 µM | [4] > 100 µM | [15] > 100 µM | [6] > 100 µM | [7] > 100 µM | [8] > 100 µM | [16] > 100 µM | [9] > 100 µM | [11] > 100 µM | [12] > 100 µM | [13] > 100 µM | [14] > 100 µM

CN(C)CC(C)(C)C(=O)/C=C/c1ccccc1
inactive: [1] 13.8 µM | [2] 15.3 µM | [3] 15.8 µM | [4] 12.9 µM | [5] 13.3 µM | [15] 3.39 µM | [6] 14.1 µM | [7] 16.3 µM | [8] 8.41 µM | [9] 15.8 µM | [10] 16.1 µM | [11] 16.2 µM | [12] 17.5 µM | [13] 18 µM | [17] 17 µM
